{
  "source": "paper PMC12181291",
  "about": "“Production and biochemical characterization of Pleurotus ostreatus NRC 620 laccase and evaluation of its efficacy in apple juice clarification” (Scientific Reports, 2025)",
  "tested_on": "T1, Pleurotus ostreatus NRC 620 laccase",
  "T1 construct": "gene pox2",
  "details": "pH 4.5; ABTS 0.025-3 mM; crude culture supernatant",
  "data": [
    {"smiles": "CCn1c(=NN=c2sc3cc(S(=O)(=O)O)ccc3n2CC)sc2cc(S(=O)(=O)O)ccc21", "note": "[ABTS, 2, 2´-azino-bis (3-ethylbenzothiazoline-6-sulphonic acid)]", "values": [
      {"measurement": "Km", "result": 1990, "unit": "µM"}
    ]}
  ]
}
